Source: patent US10088490B2, “Assay for analytes using multiple receptors” (Siemens Healthcare Diagnostics Inc., priority 2010, dated 2018)

What was measured:
Format in all cases: binding
[1] = tested on: mixture of Biotinylated Antibody A Reagent and Biotinylated Antibody L Reagent; experiment: LOCI competitive cortisol immunoassay, cross-reactivity with mixtures of Biotinylated Antibody A and L Reagents; conditions: steroid-stripped serum with cortisol
Procedure: (§1) The assay used for screening purposes was conducted on the DIMENSION® VISTA® instrument (system) (Siemens Healthcare Diagnostics Inc., Newark Del.). Initially, 20 μL Biotinylated Antibody Reagent with 15 μL system water was added to the vessel. After 22 seconds, 15 μL sample with 15 μL system water were added to the vessel. After almost 4 minutes, 20 μL Chemibead Reagent with 15 μL system water were added to the vessel. Approximately 7 minutes later, 20 μL Sensibead Reagent with 135 μL system water was added to the vessel. The LOCI® read was taken after approximately 5 minutes. The assay from the first reagent addition to the final read took approximately 16 minutes. The contents of the vessel when the final read is taken were as follows: 2 ng/mL Biotinylated Antibody Reagent, 4 μg/mL Chemibead Reagent, 56 μg/mL Sensibead Reagent, and […] sample. The assay is a competitive format, which means that the greater the concentration of analyte in the sample, the smaller is the signal generation. This is because a detectable complex is formed by the Biotinylated Antibody Reagent, Chemibead Reagent, and Sensibead Reagent in the absence of analyte. The presence of analyte decreases the proportion of Biotinylated Antibody Reagent that is free to form detectable complexes.
(§2) Initial testing used Biotinylated Antibody A Reagent with the other reagents and the methodology described above to analyze the steroid-stripped serum with cortisol. The panel of 34 cross-reactants were individually added to the steroid-stripped serum with a defined concentration of cortisol (5 ng/dL) and assayed. Cross-reactivity data were calculated as follows:
(§3) [formula] The same testing was performed using Biotinylated Antibody L Reagent. The compilation of the percent cross-reactivities for the 34 compounds is referred to as the cross-reactivity profile. The apparent cortisol concentration is the cortisol value obtained when testing a sample containing cortisol and the interfering substance by the above test method that also detects the interfering substance to some degree.
A further study was performed by mixing Biotinylated Antibody A Reagent with Biotinylated Antibody L Reagent in a 50:50 mixture; 80% Biotinylated Antibody A Reagent: 20% Biotinylated Antibody L Reagent; 75% Biotinylated Antibody A Reagent: 25% Biotinylated Antibody L Reagent; and 70% Biotinylated Antibody A Reagent: 30% Biotinylated Antibody L Reagent. […] These reagents were used to test cross-reactivity in stripped serum with cortisol.

[2] = tested on: Antibody A specific for cortisol (clone 16DC/17.7, IgG1κ); experiment: LOCI competitive cortisol immunoassay, cross-reactivity screening with Biotinylated Antibody A Reagent; conditions: 100% A Biotinylated Antibody; steroid-stripped serum with cortisol (5 ng/dL)
Procedure: (§4) The antibodies were subjected to analytical size exclusion chromatography prior to any manipulations.
(§5) NHS-PEO4-Biotin was dissolved fresh at 10 mg/mL in Antibody Dialysis Buffer. […] The mixture was rocked at 25° C. for exactly 3 hours. A 200 mM solution of glycine was prepared by dissolving 750 mg glycine in Antibody Dialysis Buffer to a total volume of 50 mL. At the end of the 3-hour biotinylation reaction, 1.52 mL of the 200 mM glycine solution was added to the reaction mixture. The quenched reaction mixture was rocked an additional 60 minutes at 25° C.
(§6) The biotinylated antibody was then purified using preparatory HPLC using Antibody Dialysis Buffer as the mobile phase. […] This reagent was designated as the Biotinylated Antibody Reagent.
as §1, §2, §3

[3] = tested on: Antibody L specific for cortisol (clone XM210, IgG2a); experiment: LOCI competitive cortisol immunoassay, cross-reactivity screening with Biotinylated Antibody L Reagent; conditions: 100% L Biotinylated Antibody; steroid-stripped serum with cortisol (5 ng/dL)
Procedure: as §4, §5, §6, §1, §2, §3

[4] = 70% A 30% L Biotinylated Antibody
[5] = 75% A 25% L Biotinylated Antibody
[6] = 80% A 20% L Biotinylated Antibody

C[C@]12CC[C@@H](O)C[C@H]1CC[C@@H]1[C@@H]2CC[C@@]2(C)[C@H]1CC[C@]2(O)C(=O)CO [tetrahydro-11-deoxycortisol]
percent cross reactivity [1, 4]: 0.2%
percent cross reactivity [1, 5]: 0.2%
percent cross reactivity [1, 6]: 0.2%
percent cross reactivity [2]: 0.3%
percent cross reactivity [3]: 0.2%

C[C@]12CC[C@@H](O)C[C@H]1CC[C@@H]1[C@@H]2C(=O)C[C@@]2(C)[C@H]1CC[C@]2(O)[C@H](O)CO [β-cortolone]
percent cross reactivity [1, 4]: 0.0%
percent cross reactivity [1, 5]: 0.0%
percent cross reactivity [1, 6]: 0.0%
percent cross reactivity [2]: 0.0%
percent cross reactivity [3]: 0.0%

CC(=O)OCC(=O)[C@@]1(O)CC[C@H]2[C@@H]3CCC4=CC(=O)CC[C@]4(C)[C@@]3(F)[C@@H](O)C[C@@]21C [fluorocortisone acetate]
percent cross reactivity [1, 4]: 27.8%
percent cross reactivity [1, 5]: 20.9%
percent cross reactivity [1, 6]: 17.0%
percent cross reactivity [2]: 35.3%
percent cross reactivity [3]: 69.3%

C[C@]12CC[C@@H](O)C[C@@H]1CC[C@@H]1[C@@H]2[C@@H](O)C[C@@]2(C)[C@H]1CC[C@]2(O)C(=O)CO [allotetrahydrocortisol]
percent cross reactivity [1, 4]: 7.1%
percent cross reactivity [1, 5]: 6.5%
percent cross reactivity [1, 6]: 6.0%
percent cross reactivity [2]: 4.7%
percent cross reactivity [3]: 8.1%

C[C@]12CC[C@@H](O)C[C@H]1CC[C@@H]1[C@@H]2C(=O)C[C@@]2(C)[C@H]1CC[C@]2(O)[C@@H](O)CO [α-cortolone]
percent cross reactivity [1, 4]: 0.0%
percent cross reactivity [1, 5]: 0.0%
percent cross reactivity [1, 6]: 0.0%
percent cross reactivity [2]: 0.0%
percent cross reactivity [3]: 0.0%

C[C@]12C=CC(=O)C=C1CC[C@@H]1[C@@H]2C(=O)C[C@@]2(C)[C@H]1CC[C@]2(O)C(=O)CO [prednisone]
percent cross reactivity [1, 4]: 1.1%
percent cross reactivity [1, 5]: 1.3%
percent cross reactivity [1, 6]: 1.5%
percent cross reactivity [2]: 26.5%
percent cross reactivity [3]: 0.6%

C[C@]12CCC(=O)C=C1CC[C@@H]1[C@@H]2C(=O)C[C@@]2(C)[C@H]1CC[C@]2(O)[C@@H](O)CO [20α-dihydrocortisone]
percent cross reactivity [1, 4]: 0.4%
percent cross reactivity [1, 5]: 0.5%
percent cross reactivity [1, 6]: 0.5%
percent cross reactivity [2]: 1.5%
percent cross reactivity [3]: 0.2%

C[C@]12CCC(=O)C=C1CC[C@@H]1[C@@H]2[C@@H](O)C[C@@]2(C)[C@H]1CC[C@]2(O)[C@H](O)CO [20β-dihydrocortisol]
percent cross reactivity [1, 4]: 1.6%
percent cross reactivity [1, 5]: 1.5%
percent cross reactivity [1, 6]: 1.3%
percent cross reactivity [2]: 0.6%
percent cross reactivity [3]: 2.1%

CC(=O)[C@@]1(O)CC[C@H]2[C@@H]3CCC4=CC(=O)CC[C@]4(C)[C@H]3[C@@H](O)C[C@@]21C [21-deoxycortisol]
percent cross reactivity [1, 4]: 7.2%
percent cross reactivity [1, 5]: 6.9%
percent cross reactivity [1, 6]: 6.9%
percent cross reactivity [2]: 8.3%
percent cross reactivity [3]: 6.4%

C[C@]12CCC(=O)C=C1CC[C@@H]1[C@@H]2[C@@H](O)C[C@@]2(C)[C@H]1CC[C@]2(O)C(=O)COS(=O)(=O)O [sulphate 21-cortisol]
percent cross reactivity [1, 4]: 0.6%
percent cross reactivity [1, 5]: 0.7%
percent cross reactivity [1, 6]: 0.9%
percent cross reactivity [2]: 22.5%
percent cross reactivity [3]: 0.2%

C[C@]12CCC(=O)C=C1CC[C@@H]1[C@@H]2C(=O)C[C@@]2(C)[C@H]1CC[C@]2(O)[C@H](O)CO [20β-dihydrocortisone]
percent cross reactivity [1, 4]: 0.1%
percent cross reactivity [1, 5]: 0.1%
percent cross reactivity [1, 6]: 0.1%
percent cross reactivity [2]: 0.1%
percent cross reactivity [3]: 0.1%

C[C@]12CCC(=O)C[C@H]1CC[C@@H]1[C@@H]2[C@@H](O)C[C@@]2(C)[C@H]1CC[C@]2(O)C(=O)CO [5β-dihydrocortisol]
percent cross reactivity [1, 4]: 1.0%
percent cross reactivity [1, 5]: 0.9%
percent cross reactivity [1, 6]: 0.8%
percent cross reactivity [2]: 0.4%
percent cross reactivity [3]: 1.3%

C[C@]12CCC(=O)C=C1CC[C@@H]1[C@@H]2CC[C@@]2(C)[C@H]1CC[C@]2(O)C(=O)CO [11-deoxycortisol]
percent cross reactivity [1, 4]: 3.0%
percent cross reactivity [1, 5]: 3.2%
percent cross reactivity [1, 6]: 3.7%
percent cross reactivity [2]: 39.8%
percent cross reactivity [3]: 1.7%

C[C@]12CC[C@@H](O)C[C@H]1CC[C@@H]1[C@@H]2C(=O)C[C@@]2(C)[C@H]1CC[C@]2(O)C(=O)CO [tetrahydrocortisone]
percent cross reactivity [1, 4]: 0.2%
percent cross reactivity [1, 5]: 0.2%
percent cross reactivity [1, 6]: 0.3%
percent cross reactivity [2]: 0.5%
percent cross reactivity [3]: 0.1%

CC(=O)[C@H]1CC[C@H]2[C@@H]3CCC4=CC(=O)CC[C@]4(C)[C@H]3CC[C@]12C [progesterone]
percent cross reactivity [1, 4]: 0.6%
percent cross reactivity [1, 5]: 0.6%
percent cross reactivity [1, 6]: 0.6%
percent cross reactivity [2]: 0.6%
percent cross reactivity [3]: 0.6%

C[C@]12CC[C@@H](O)C[C@H]1CC[C@@H]1[C@@H]2[C@@H](O)C[C@@]2(C)[C@H]1CC[C@]2(O)C(=O)CO [tetrahydrocortisol]
percent cross reactivity [1, 4]: 0.1%
percent cross reactivity [1, 5]: 0.1%
percent cross reactivity [1, 6]: 0.0%
percent cross reactivity [2]: 0.0%
percent cross reactivity [3]: 0.1%

C[C@]12CCC(=O)C=C1CC[C@@H]1[C@@H]2[C@@H](O)C[C@]2(C=O)[C@@H](C(=O)CO)CC[C@@H]12 [Aldosterone]
percent cross reactivity [1, 4]: 0.3%
percent cross reactivity [1, 5]: 0.3%
percent cross reactivity [1, 6]: 0.3%
percent cross reactivity [2]: 0.3%
percent cross reactivity [3]: 0.3%

CC(=O)[C@@]1(O)CC[C@H]2[C@@H]3CCC4=CC(=O)CC[C@]4(C)[C@H]3CC[C@@]21C [17α-hydroxyprogesterone]
percent cross reactivity [1, 4]: 1.6%
percent cross reactivity [1, 5]: 1.8%
percent cross reactivity [1, 6]: 2.1%
percent cross reactivity [2]: 24.1%
percent cross reactivity [3]: 0.9%

C[C@]12CC[C@@H](O)C[C@H]1CC[C@@H]1[C@@H]2[C@@H](O)C[C@@]2(C)[C@H]1CC[C@]2(O)[C@H](O)CO [β-cortol]
percent cross reactivity [1, 4]: 0.0%
percent cross reactivity [1, 5]: 0.0%
percent cross reactivity [1, 6]: 0.0%
percent cross reactivity [2]: 0.0%
percent cross reactivity [3]: 0.0%

C[C@H]1C[C@@H]2[C@H]([C@@H](O)C[C@@]3(C)[C@H]2CC[C@]3(O)C(=O)CO)[C@@]2(C)C=CC(=O)C=C12 [6-methyl-prednisolone]
percent cross reactivity [1, 4]: 8.3%
percent cross reactivity [1, 5]: 7.5%
percent cross reactivity [1, 6]: 7.2%
percent cross reactivity [2]: 6.4%
percent cross reactivity [3]: 10.7%

C[C@]12C[C@H](O)[C@H]3[C@@H](CCC4=CC(=O)CC[C@@]43C)[C@@H]1CC[C@@H]2C(=O)CO [corticosterone]
percent cross reactivity [1, 4]: 1.8%
percent cross reactivity [1, 5]: 1.5%
percent cross reactivity [1, 6]: 1.4%
percent cross reactivity [2]: 0.6%
percent cross reactivity [3]: 3.0%

CC(=O)[C@@]1(O)CC[C@H]2[C@@H]3CCC4=CC(=O)CC[C@]4(C)[C@H]3C(=O)C[C@@]21C [21-deoxycortisone]
percent cross reactivity [1, 4]: 2.5%
percent cross reactivity [1, 5]: 2.7%
percent cross reactivity [1, 6]: 3.1%
percent cross reactivity [2]: 36.4%
percent cross reactivity [3]: 1.4%

C[C@]12C=CC(=O)C=C1CC[C@@H]1[C@@H]2[C@@H](O)C[C@@]2(C)[C@H]1CC[C@]2(O)C(=O)CO [prednisolone]
percent cross reactivity [1, 4]: 12.4%
percent cross reactivity [1, 5]: 12.2%
percent cross reactivity [1, 6]: 12.4%
percent cross reactivity [2]: 13.6%
percent cross reactivity [3]: 10.2%

C[C@]12CCC(=O)C=C1CC[C@@H]1[C@@H]2[C@@H](O)C[C@@]2(C)[C@H]1CC[C@]2(O)[C@@H](O)CO [20α-dihydrocortisol]
percent cross reactivity [1, 4]: 0.7%
percent cross reactivity [1, 5]: 0.6%
percent cross reactivity [1, 6]: 0.6%
percent cross reactivity [2]: 0.4%
percent cross reactivity [3]: 0.9%
